# Measured values reported in the NIST ThermoML archive (doi:10.1021/je0341413).
# ± gives the expanded uncertainty stated by the source.
# Experiments:
# [1] = Liquid; for viscosity: 101.3 kPa; for mass density: 101.33 kPa
# [2] = xn = mol fraction of the nth substance listed; conditions: 101.3 kPa, Liquid
structure (smiles),measurement,setting,value
CCCCO [butan-1-ol],viscosity,[1]; 293.15 K,2.941 ± 0.092 mPa·s
same,viscosity,[1]; 298.15 K,2.62 ± 0.083 mPa·s
same,mass density,[1]; 298.15 K,805.9 ± 0.4 kg/m3
same,viscosity,[1]; 303.15 K,2.255 ± 0.071 mPa·s
same,viscosity,[1]; 313.15 K,1.754 ± 0.056 mPa·s
CCCCO [butan-1-ol] + CCOC(=O)OCC,viscosity,"[2]; 293.15 K, x2 = 0",2.941 ± 0.092 mPa·s
same,viscosity,"[2]; 298.15 K, x2 = 0",2.62 ± 0.083 mPa·s
same,viscosity,"[2]; 303.15 K, x2 = 0",2.255 ± 0.071 mPa·s
same,viscosity,"[2]; 313.15 K, x2 = 0",1.754 ± 0.056 mPa·s
CCC(C)O (centres undefined) [butan-2-ol],viscosity,[1]; 293.15 K,3.619 ± 0.23 mPa·s
same,viscosity,[1]; 298.15 K,3.115 ± 0.2 mPa·s
same,mass density,[1]; 298.15 K,802.4 ± 0.5 kg/m3
same,viscosity,[1]; 303.15 K,2.503 ± 0.16 mPa·s
same,viscosity,[1]; 313.15 K,1.784 ± 0.11 mPa·s
CCC(C)O (centres undefined) [butan-2-ol] + CCOC(=O)OCC,viscosity,"[2]; 293.15 K, x2 = 0",3.619 ± 0.23 mPa·s
same,viscosity,"[2]; 298.15 K, x2 = 0",3.115 ± 0.2 mPa·s
same,viscosity,"[2]; 303.15 K, x2 = 0",2.503 ± 0.16 mPa·s
same,viscosity,"[2]; 313.15 K, x2 = 0",1.784 ± 0.11 mPa·s
CCOC(=O)OCC [diethyl carbonate],viscosity,[1]; 293.15 K,0.795 ± 0.025 mPa·s
same,viscosity,[1]; 298.15 K,0.749 ± 0.024 mPa·s
same,mass density,[1]; 298.15 K,969.1 ± 0.3 kg/m3
same,viscosity,[1]; 303.15 K,0.699 ± 0.022 mPa·s
same,viscosity,[1]; 313.15 K,0.623 ± 0.02 mPa·s
CCOC(=O)OCC [diethyl carbonate] + CC(C)O,viscosity,"[2]; 293.15 K, x1 = 0.0502",1.973 ± 0.062 mPa·s
same,viscosity,"[2]; 293.15 K, x1 = 0.1001",1.67 ± 0.053 mPa·s
same,viscosity,"[2]; 293.15 K, x1 = 0.203",1.27 ± 0.041 mPa·s
same,viscosity,"[2]; 293.15 K, x1 = 0.3012",1.073 ± 0.034 mPa·s
same,viscosity,"[2]; 293.15 K, x1 = 0.3954",0.962 ± 0.031 mPa·s
same,viscosity,"[2]; 293.15 K, x1 = 0.5021",0.886 ± 0.028 mPa·s
same,viscosity,"[2]; 293.15 K, x1 = 0.6035",0.841 ± 0.027 mPa·s
same,viscosity,"[2]; 293.15 K, x1 = 0.6976",0.811 ± 0.026 mPa·s
same,viscosity,"[2]; 293.15 K, x1 = 0.8048",0.794 ± 0.025 mPa·s
same,viscosity,"[2]; 293.15 K, x1 = 0.9129",0.796 ± 0.025 mPa·s
same,viscosity,"[2]; 293.15 K, x1 = 0.9529",0.799 ± 0.025 mPa·s
same,viscosity,"[2]; 293.15 K, x1 = 1",0.795 ± 0.025 mPa·s
same,viscosity,"[2]; 298.15 K, x1 = 0.049",1.766 ± 0.056 mPa·s
same,viscosity,"[2]; 298.15 K, x1 = 0.0987",1.501 ± 0.048 mPa·s
same,viscosity,"[2]; 298.15 K, x1 = 0.1978",1.135 ± 0.036 mPa·s
same,viscosity,"[2]; 298.15 K, x1 = 0.2945",0.94 ± 0.03 mPa·s
same,viscosity,"[2]; 298.15 K, x1 = 0.3925",0.836 ± 0.027 mPa·s
same,viscosity,"[2]; 298.15 K, x1 = 0.4925",0.788 ± 0.025 mPa·s
same,viscosity,"[2]; 298.15 K, x1 = 0.5939",0.763 ± 0.024 mPa·s
same,viscosity,"[2]; 298.15 K, x1 = 0.7004",0.74 ± 0.023 mPa·s
same,viscosity,"[2]; 298.15 K, x1 = 0.7979",0.719 ± 0.023 mPa·s
same,viscosity,"[2]; 298.15 K, x1 = 0.8967",0.717 ± 0.023 mPa·s
same,viscosity,"[2]; 298.15 K, x1 = 0.9504",0.726 ± 0.023 mPa·s
same,viscosity,"[2]; 298.15 K, x1 = 1",0.749 ± 0.024 mPa·s
same,viscosity,"[2]; 303.15 K, x1 = 0.0522",1.468 ± 0.046 mPa·s
same,viscosity,"[2]; 303.15 K, x1 = 0.099",1.277 ± 0.04 mPa·s
same,viscosity,"[2]; 303.15 K, x1 = 0.1944",1.009 ± 0.032 mPa·s
same,viscosity,"[2]; 303.15 K, x1 = 0.2913",0.864 ± 0.027 mPa·s
same,viscosity,"[2]; 303.15 K, x1 = 0.392",0.777 ± 0.025 mPa·s
same,viscosity,"[2]; 303.15 K, x1 = 0.4763",0.733 ± 0.023 mPa·s
same,viscosity,"[2]; 303.15 K, x1 = 0.5883",0.702 ± 0.022 mPa·s
same,viscosity,"[2]; 303.15 K, x1 = 0.6972",0.683 ± 0.022 mPa·s
same,viscosity,"[2]; 303.15 K, x1 = 0.7854",0.68 ± 0.021 mPa·s
same,viscosity,"[2]; 303.15 K, x1 = 0.889",0.684 ± 0.022 mPa·s
same,viscosity,"[2]; 303.15 K, x1 = 0.9488",0.69 ± 0.022 mPa·s
same,viscosity,"[2]; 303.15 K, x1 = 1",0.699 ± 0.022 mPa·s
same,viscosity,"[2]; 313.15 K, x1 = 0.0506",1.148 ± 0.036 mPa·s
same,viscosity,"[2]; 313.15 K, x1 = 0.0997",1.011 ± 0.032 mPa·s
same,viscosity,"[2]; 313.15 K, x1 = 0.2016",0.821 ± 0.026 mPa·s
same,viscosity,"[2]; 313.15 K, x1 = 0.303",0.71 ± 0.022 mPa·s
same,viscosity,"[2]; 313.15 K, x1 = 0.4008",0.661 ± 0.021 mPa·s
same,viscosity,"[2]; 313.15 K, x1 = 0.4969",0.634 ± 0.02 mPa·s
same,viscosity,"[2]; 313.15 K, x1 = 0.599",0.617 ± 0.02 mPa·s
same,viscosity,"[2]; 313.15 K, x1 = 0.7007",0.604 ± 0.019 mPa·s
same,viscosity,"[2]; 313.15 K, x1 = 0.8011",0.594 ± 0.019 mPa·s
same,viscosity,"[2]; 313.15 K, x1 = 0.903",0.596 ± 0.019 mPa·s
same,viscosity,"[2]; 313.15 K, x1 = 0.9511",0.605 ± 0.019 mPa·s
same,viscosity,"[2]; 313.15 K, x1 = 1",0.623 ± 0.02 mPa·s
CCOC(=O)OCC [diethyl carbonate] + CCC(C)O,viscosity,"[2]; 293.15 K, x1 = 0.0512",2.892 ± 0.18 mPa·s
same,viscosity,"[2]; 293.15 K, x1 = 0.1031",2.341 ± 0.15 mPa·s
same,viscosity,"[2]; 293.15 K, x1 = 0.2021",1.652 ± 0.1 mPa·s
same,viscosity,"[2]; 293.15 K, x1 = 0.2997",1.289 ± 0.081 mPa·s
same,viscosity,"[2]; 293.15 K, x1 = 0.4023",1.092 ± 0.069 mPa·s
same,viscosity,"[2]; 293.15 K, x1 = 0.5115",0.979 ± 0.062 mPa·s
same,viscosity,"[2]; 293.15 K, x1 = 0.607",0.91 ± 0.057 mPa·s
same,viscosity,"[2]; 293.15 K, x1 = 0.707",0.861 ± 0.054 mPa·s
same,viscosity,"[2]; 293.15 K, x1 = 0.8038",0.825 ± 0.052 mPa·s
same,viscosity,"[2]; 293.15 K, x1 = 0.9089",0.804 ± 0.051 mPa·s
same,viscosity,"[2]; 293.15 K, x1 = 0.9524",0.803 ± 0.051 mPa·s
same,viscosity,"[2]; 293.15 K, x1 = 1",0.795 ± 0.05 mPa·s
same,viscosity,"[2]; 298.15 K, x1 = 0.0509",2.485 ± 0.16 mPa·s
same,viscosity,"[2]; 298.15 K, x1 = 0.101",2.001 ± 0.12 mPa·s
same,viscosity,"[2]; 298.15 K, x1 = 0.202",1.379 ± 0.086 mPa·s
same,viscosity,"[2]; 298.15 K, x1 = 0.3002",1.071 ± 0.067 mPa·s
same,viscosity,"[2]; 298.15 K, x1 = 0.404",0.937 ± 0.059 mPa·s
same,viscosity,"[2]; 298.15 K, x1 = 0.5003",0.888 ± 0.056 mPa·s
same,viscosity,"[2]; 298.15 K, x1 = 0.6008",0.858 ± 0.054 mPa·s
same,viscosity,"[2]; 298.15 K, x1 = 0.6963",0.813 ± 0.051 mPa·s
same,viscosity,"[2]; 298.15 K, x1 = 0.7987",0.752 ± 0.047 mPa·s
same,viscosity,"[2]; 298.15 K, x1 = 0.8999",0.709 ± 0.045 mPa·s
same,viscosity,"[2]; 298.15 K, x1 = 0.9466",0.712 ± 0.045 mPa·s
same,viscosity,"[2]; 298.15 K, x1 = 1",0.749 ± 0.047 mPa·s
same,viscosity,"[2]; 303.15 K, x1 = 0.0517",2.023 ± 0.13 mPa·s
same,viscosity,"[2]; 303.15 K, x1 = 0.1132",1.623 ± 0.1 mPa·s
same,viscosity,"[2]; 303.15 K, x1 = 0.2267",1.211 ± 0.076 mPa·s
same,viscosity,"[2]; 303.15 K, x1 = 0.3316",1.021 ± 0.064 mPa·s
same,viscosity,"[2]; 303.15 K, x1 = 0.4467",0.89 ± 0.056 mPa·s
same,viscosity,"[2]; 303.15 K, x1 = 0.5422",0.809 ± 0.051 mPa·s
same,viscosity,"[2]; 303.15 K, x1 = 0.6426",0.739 ± 0.047 mPa·s
same,viscosity,"[2]; 303.15 K, x1 = 0.7416",0.698 ± 0.044 mPa·s
same,viscosity,"[2]; 303.15 K, x1 = 0.8281",0.684 ± 0.043 mPa·s
same,viscosity,"[2]; 303.15 K, x1 = 0.9196",0.691 ± 0.044 mPa·s
same,viscosity,"[2]; 303.15 K, x1 = 0.9494",0.697 ± 0.044 mPa·s
same,viscosity,"[2]; 303.15 K, x1 = 1",0.699 ± 0.044 mPa·s
same,viscosity,"[2]; 313.15 K, x1 = 0.0511",1.503 ± 0.094 mPa·s
same,viscosity,"[2]; 313.15 K, x1 = 0.1026",1.28 ± 0.08 mPa·s
same,viscosity,"[2]; 313.15 K, x1 = 0.1988",0.996 ± 0.063 mPa·s
same,viscosity,"[2]; 313.15 K, x1 = 0.2955",0.83 ± 0.052 mPa·s
same,viscosity,"[2]; 313.15 K, x1 = 0.4041",0.738 ± 0.047 mPa·s
same,viscosity,"[2]; 313.15 K, x1 = 0.5084",0.69 ± 0.043 mPa·s
same,viscosity,"[2]; 313.15 K, x1 = 0.5983",0.662 ± 0.042 mPa·s
same,viscosity,"[2]; 313.15 K, x1 = 0.6988",0.636 ± 0.04 mPa·s
same,viscosity,"[2]; 313.15 K, x1 = 0.8034",0.61 ± 0.038 mPa·s
same,viscosity,"[2]; 313.15 K, x1 = 0.9022",0.601 ± 0.038 mPa·s
same,viscosity,"[2]; 313.15 K, x1 = 0.9523",0.606 ± 0.038 mPa·s
same,viscosity,"[2]; 313.15 K, x1 = 1",0.623 ± 0.039 mPa·s
